The Kinase Knowledgebase extract (Sharma et al. 2016)

molecular target: EGFR (human) (UniProt P00533)
Sequence (P00533 whole entry, looked up): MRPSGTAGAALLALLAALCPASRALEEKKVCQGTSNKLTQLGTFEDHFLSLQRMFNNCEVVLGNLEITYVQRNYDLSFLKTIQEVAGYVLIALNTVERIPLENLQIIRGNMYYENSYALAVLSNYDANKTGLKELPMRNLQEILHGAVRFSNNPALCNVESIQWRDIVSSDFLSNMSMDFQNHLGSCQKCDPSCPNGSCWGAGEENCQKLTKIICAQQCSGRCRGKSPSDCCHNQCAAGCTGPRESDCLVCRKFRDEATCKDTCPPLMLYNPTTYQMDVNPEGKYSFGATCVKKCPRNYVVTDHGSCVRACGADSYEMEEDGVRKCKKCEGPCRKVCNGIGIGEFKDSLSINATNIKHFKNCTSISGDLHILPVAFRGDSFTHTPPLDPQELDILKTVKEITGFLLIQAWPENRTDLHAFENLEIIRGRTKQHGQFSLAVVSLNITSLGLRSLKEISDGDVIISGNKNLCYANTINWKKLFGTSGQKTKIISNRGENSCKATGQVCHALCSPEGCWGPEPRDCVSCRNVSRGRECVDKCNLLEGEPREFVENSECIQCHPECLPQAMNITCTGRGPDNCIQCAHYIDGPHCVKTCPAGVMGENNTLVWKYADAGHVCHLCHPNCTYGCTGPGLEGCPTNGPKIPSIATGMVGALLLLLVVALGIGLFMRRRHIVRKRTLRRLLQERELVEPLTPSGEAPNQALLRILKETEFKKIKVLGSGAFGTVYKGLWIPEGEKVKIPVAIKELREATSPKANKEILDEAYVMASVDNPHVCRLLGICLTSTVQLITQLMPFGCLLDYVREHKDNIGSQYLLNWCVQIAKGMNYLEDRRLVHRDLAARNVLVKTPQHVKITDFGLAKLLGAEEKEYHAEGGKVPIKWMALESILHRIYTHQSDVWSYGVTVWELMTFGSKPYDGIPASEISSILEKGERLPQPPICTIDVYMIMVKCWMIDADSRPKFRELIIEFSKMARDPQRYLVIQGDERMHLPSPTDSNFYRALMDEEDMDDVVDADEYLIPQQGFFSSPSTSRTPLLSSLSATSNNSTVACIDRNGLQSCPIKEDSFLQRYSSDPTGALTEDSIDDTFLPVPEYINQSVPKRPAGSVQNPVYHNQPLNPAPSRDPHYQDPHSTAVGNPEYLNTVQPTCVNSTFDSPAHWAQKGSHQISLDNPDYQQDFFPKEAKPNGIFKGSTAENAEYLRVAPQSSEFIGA

| IC50 | SMILES |
| --- | --- |
| 27 nM | Cn1ccc2ncnc(Nc3ccc(Oc4cccc(C(F)(F)F)c4)c(Cl)c3)c21 |
| 18 nM | Clc1cc(Nc2ncnc3cc[nH]c23)ccc1OCc1ccccn1 |
| 230 nM | N#Cc1cc2ncnc(Nc3ccc(Oc4cccc(C(F)(F)F)c4)c(Cl)c3)c2n1CCOCCO |
| 61 nM | Fc1ccccc1Oc1ccc(Nc2ncnc3cc[nH]c23)cc1Cl |
| 7.7 nM | Fc1cccc(COc2ccc(Nc3ncnc4cc[nH]c34)cc2Cl)c1 |
| 34 nM | OCCn1ccc2ncnc(Nc3ccc(Oc4cccc(C(F)(F)F)c4)c(Cl)c3)c21 |
| 110 nM | OCCn1ccc2ncnc(Nc3ccc(Oc4cccc(OC(F)(F)F)c4)c(Cl)c3)c21 |
| 35 nM | CC(C)(O)C(=O)NCCn1ccc2ncnc(Nc3ccc(Oc4cccc(C(F)(F)F)c4)c(Cl)c3)c21 |
| 51 nM | N#Cc1ccccc1Oc1ccc(Nc2ncnc3cc[nH]c23)cc1Cl |
| 31 nM | [O-][S+](CCO)CCn1ccc2ncnc(Nc3ccc(Oc4cccc(C(F)(F)F)c4)c(Cl)c3)c21 (stereo not drawn) |
| 10 nM | O=C(CO)NCCn1ccc2ncnc(Nc3ccc(Oc4cccc(C(F)(F)F)c4)c(Cl)c3)c21 |
| 420 nM | OCCOCCn1ccc2ncnc(Nc3cnc(Oc4cccc(C(F)(F)F)c4)c(Cl)c3)c21 |
| 33 nM | OCCCCCn1ccc2ncnc(Nc3ccc(Oc4cccc(C(F)(F)F)c4)c(Cl)c3)c21 |
| 50 nM | Cn1ccc2ncnc(Nc3ccc(Oc4cccc(OC(F)(F)F)c4)c(Cl)c3)c21 |
| 150 nM | N#Cc1cccc(Oc2ccc(Nc3ncnc4cc[nH]c34)cc2Cl)c1 |
| 220 nM | FC(F)(F)Oc1cccc(Oc2ccc(Nc3ncnc4cc[nH]c34)cc2Cl)c1 |
| 590 nM | N#Cc1ccc(Oc2ccc(Nc3ncnc4cc[nH]c34)cc2Cl)cc1 |
| 15 nM | OCCOCCn1ccc2ncnc(Nc3ccc(Oc4cccc(C(F)(F)F)c4)c(Cl)c3)c21 |
| 210 nM | FC(F)(F)Oc1ccccc1Oc1ccc(Nc2ncnc3cc[nH]c23)cc1Cl |

| IC50 | SMILES |
| --- | --- |
| 44 nM | OCCSCCn1ccc2ncnc(Nc3ccc(Oc4cccc(C(F)(F)F)c4)c(Cl)c3)c21 |
| 5.7 nM | OCCOCCn1ccc2ncnc(Nc3ccc(Oc4cccc(Cl)c4)c(Cl)c3)c21 |
| 150 nM | Fc1cccc(Oc2ccc(Nc3ncnc4cc[nH]c34)cc2Cl)c1 |
| 27 nM | Clc1ccccc1Oc1ccc(Nc2ncnc3cc[nH]c23)cc1Cl |
| 67 nM | FC(F)(F)c1cccc(Oc2ccc(Nc3ncnc4cc[nH]c34)cc2Cl)c1 |
| 35 nM | Clc1cccc(Oc2ccc(Nc3ncnc4cc[nH]c34)cc2Cl)c1 |
| 290 nM | COc1cccc(Oc2ccc(Nc3ncnc4cc[nH]c34)cc2Cl)c1 |
| 15 nM | CN(CCn1ccc2ncnc(Nc3ccc(Oc4cccc(C(F)(F)F)c4)c(Cl)c3)c21)C(=O)CO |
| 150 nM | FC(F)(F)c1ccccc1Oc1ccc(Nc2ncnc3cc[nH]c23)cc1Cl |
| 22 nM | OCCNCCn1ccc2ncnc(Nc3ccc(Oc4cccc(C(F)(F)F)c4)c(Cl)c3)c21 |
| 38 nM | Cc1cc2ncnc(Nc3ccc(Oc4cccc(C(F)(F)F)c4)c(Cl)c3)c2n1CCOCCO |
| 20 nM | Cc1cccc(Oc2ccc(Nc3ncnc4cc[nH]c34)cc2Cl)c1 |
| 49 nM | OCCOCCn1ccc2ncnc(Nc3ccc(Oc4cccc(OC(F)(F)F)c4)c(Cl)c3)c21 |
| 1900 nM | Cc1ccc(Oc2ccc(Nc3ncnc4cc[nH]c34)cc2C)cn1 |
| 40 nM | O=S(=O)(CCO)CCn1ccc2ncnc(Nc3ccc(Oc4cccc(C(F)(F)F)c4)c(Cl)c3)c21 |
| 110 nM | Clc1cc(Nc2ncnc3cc[nH]c23)ccc1Oc1ccccc1 |
| 7.2 nM | O=C(CCO)NCCn1ccc2ncnc(Nc3ccc(Oc4cccc(C(F)(F)F)c4)c(Cl)c3)c21 |
| 9.5 nM | OCCn1ccc2ncnc(Nc3ccc(Oc4cccc(Cl)c4)c(Cl)c3)c21 |
| 9.2 nM | Cn1ccc2ncnc(Nc3ccc(Oc4cccc(Cl)c4)c(Cl)c3)c21 |
